Paper PMC9822940, “Antiplasmodial activity, structure–activity relationship and studies on the action of novel benzimidazole derivatives” (Scientific Reports, 2023)

Tests used:
[1] = Cytotoxicity on epithelial Vero cell cultures; assay type: cell-based; conditions: African green monkey, epithelial Vero cells
Procedure: (§1) In vitro activity of BZ. All BZ derivatives were tested at 10 μM against the HB3 strain of Pf, and for those compounds with a percentage of growth inhibition (% GI) higher than 50%, the IC50 values were determined. In addition, their cytotoxicity on epithelial Vero cell cultures was evaluated to calculate their selectivity indexes (SI), Table 1. An index of 10 or above is expected for a lead compound.

[2] = test system: mitochondria of P. falciparum parasites; experiment: Mitochondrial membrane potential measurement; assay type: cell-based, Plasmodium falciparum; conditions: 1 µM
Procedure: Changes in mitochondrial membrane potential, another common hallmark of programed cell death, were analyzed in the samples that had promising activities toward P. falciparum cultures. The results of adding 1 µM of each compound can be seen in Fig. 5. […] This could probably be explained by the presence of the unsubstituted picolinamide fragment, therefore more polar and less soluble in the membrane, making it harder or slower to permeate into the erythrocyte and then into the parasite, with respect to the other three.  Figure 5 Changes to mitochondrial membrane potential caused by antiplasmodial compounds. Fluorometry was used to measure the effects on the mitochondria of P. falciparum parasites caused by treatment with compounds that show activity against their growth in culture. A membrane disruptor (CCCP) was added as a positive control and untreated cultures were used as the negative one. All compounds were tested at 1 µM in triplicates, n = 3. (a) BZ 1, (b) BZ 5, (c) BZ 16, (d) BZ 26 and (e) BZ 33. *p < 0.05, **p < 0.01, ***p < 0.005. The membrane potential was measured in a flow cytometer after staining P. falciparum cultures with the DiOC6(3) dye at 10 nM (Thermo Fisher, Waltham, MA, USA). Samples were incubated for 45 min at 37 °C in the dark. Following incubation, cells were washed and resuspended using 200 µL of phosphate-buffered saline (PBS) and analyzed immediately after. The mitochondrial membrane disrupter, CCCP (50 µM), incubated for 1 h, was used as a positive control. The fluorescence intensity of stained cells was calculated using FCS Express 4 (De Novo Software, Glendale, CA, USA). As negative control, uninfected red blood cells were used and their signal was subtracted from that of the infected red blood cells.

P. falciparum HB3 strain = experiment: Antiplasmodial activity against P. falciparum HB3 strain in culture; assay type: cell-based, Plasmodium falciparum; conditions: for IC50 / inhibition at 10 µM: Plasmodium falciparum; for IC50: HB3 strain (chloroquine-sensitive), read-out: IC50; for inhibition at 10 µM: HB3 strain, read-out: GI (growth inhibition percentage); for SI (selectivity index): Vero CC50 versus HB3 IC50
Procedure: as §1
(§2) The chloroquine-sensitive […] and chloroquine-resistance 7G8 strain […] of P. falciparum were used throughout. Infected erythrocytes were kept in culture using the protocol established by Haynes et al.[44], basically utilizing human O^+ erythrocytes kept in an RPMI medium supplemented with glutamine and 10% human serum incubated in an atmosphere of 90% N2, 5% O2 and 5% CO2.

[3] = test system: P. falciparum-infected cultures; experiment: Intracellular reactive oxygen species (ROS) production in P. falciparum; assay type: cell-based, Plasmodium falciparum; conditions: 1 µM; 0.5, 6 and 9 h
Procedure: Also, the intracellular production of oxygen reactive species (ROS) was monitored for the same antiplasmodial compounds. The level of ROS production was compared between the samples and that of the untreated parasites. […] This would point to the conformation of such molecules targeting a specific molecule or process of the parasite.  Figure 4 Effect of selected benzimidazole derivatives on ROS production. Five potent compounds were incubated with P. falciparum-infected cultures and the production of reactive oxygen species was measured through fluorometry at 0.5, 6 and 9 h after their addition at 1 µM. As positive control, a sample containing hydrogen peroxide at 200 μM was added. Samples were measured in triplicates. One-way ANOVA with Turkey´s comparison was used to measure significance with respect to the untreated control at each different time point. n = 2. (a) BZ 1, (b) BZ 5, (c) BZ 16, (d) BZ 26 and (e) BZ 33. *p < 0.05, **p < 0.01, ***p < 0.005. Intracellular ROS formation was measured in a fluorimeter using the CM-H2DCFDA reactive dye from Molecular Probes® (Eugene OR, USA). Hydrogen peroxide was used as a positive control at a final concentration of 200 µM. The level of ROS present was inferred through the amount of oxidized DCF[45].

[4] = test system: plasma membrane of parasite culture / erythrocytes; experiment: Propidium iodide incorporation assay (membrane integrity); assay type: cell-based, Plasmodium falciparum; conditions: 3 h incubation, fluorometry
Procedure: The integrity of the plasma membrane under the action of certain antiplasmodial compounds was assessed through the use of two methodologies. First, the absorption of propidium iodide, to which intact membranes are impermeable, was measured. Second, the presence of heme in the culture media, which indicates a leakage of the contents of the erythrocyte or its complete lysis (hemolysis), was analyzed.
Figure 3 Membrane integrity tests. BZ 1, 5, 16, 26 and 33 were tested in triplicates in two independent experiments. (a) Incorporation of propidium iodide (PI) was analyzed through fluorometry after 3 h incubation with the compounds. (b) Hemolysis was measured by light absorbance 24 h after exposure to the compounds. One-way ANOVA with Turkey´s comparison was used for analysis of significance. ****p < 0.001.
Manufacturer’s instructions (BD PharmingenTM) were followed. Briefly, 200 µL of parasite culture at 2% parasitemia or uninfected erythrocytes, at 2% hematocrit, were incubated with each compound for 3 h at 37 °C. Untreated samples were cultured in the same plate. After incubation, 2 µL of Propidium Iodide was added and incubated for 15 min at RT while protected from light. Fluorescence was read in a fluorometer at excitation and emission wavelengths of 485/20 and 645/40 nm, respectively.

[5] = test system: 7G8 P. falciparum parasites; experiment: Antiplasmodial activity against chloroquine-resistant 7G8 P. falciparum; assay type: cell-based, Plasmodium falciparum; conditions: for IC50: Plasmodium falciparum, 7G8 strain (chloroquine-resistant), read-out: 7G8 Pf IC50; for SI (selectivity index): Vero CC50 versus 7G8 IC50
Source text: (§3) The mechanism used by Pf to prevent intoxication with free heme once hemoglobin is degraded is to form hemozoin crystals that capture heme. Mefloquine and other common antimalarials interfere with this pathway, resulting in the death of the parasite.
as §2

[6] = test system: hemozoin biocrystallization in P. falciparum; experiment: Hemozoin biocrystallization / beta-hemozoin formation; assay type: cell-based, Plasmodium falciparum; conditions: Pf cultures, 36 h
Source text: as §3

Structure (SMILES)	CC50 [1] [µM]	Change in mitochondrial membrane potential versus untreated control [2]	IC50 (P. falciparum HB3 strain) [µM]	inhibition at 10 µM (P. falciparum HB3 strain) [%]	Intracellular ROS production versus untreated parasites [3]	Membrane integrity: incorporation of propidium iodide [4]	IC50 [5] [µM]	SI (selectivity index) [5]	SI (selectivity index) (P. falciparum HB3 strain)	Interference with hemozoin biocrystallization [6]
Cc1cc2nc(NC(=O)c3ccccn3)[nH]c2cc1C [BZ 33, N-(5,6-Dimethyl-1H-benzimidazol-2-yl)picolinamide]	13.2	do not show a difference with the untreated control up to t = 6 h	0.85	100	early significant decrease in the natural level of ROS	best in keeping the membrane well preserved	–	–	–	–
Cc1ccc(C(=O)Nc2nc3cc(Cl)ccc3[nH]2)nc1 [BZ 16, N-(5-Chloro-1H-benzimidazol-2-yl)-5-methylpicolinamide]	7.2	–	2.4	85.6	no significant difference at any point	some permeation in the membrane, although not significant	2.6	2.7	3.0	small level of disruption
Cc1ccc2[nH]c(NC(=O)c3ccccn3)nc2c1 [BZ 1, N-(5-methyl-1H-benzimidazol-2-yl)picolinamide]	14.8	do not show a difference with the untreated control up to t = 6 h	0.98	93.5	early significant decrease in the natural level of ROS	best in keeping the membrane well preserved	0.95	15.6	–	–
COc1ccc2[nH]c(NC(=O)c3ccc(C)cn3)nc2c1 [BZ 26, N-(5-Methoxy-1H-benzimidazol-2-yl)-5-methylpicolinamide]	11.1	shows an effect from t = 6 h onward	3.3	93.5	no significant difference at any point	some permeation in the membrane, although not significant	–	–	3.4	–
